Laboratory results reported in ChEMBL document CHEMBL1145500, “In vitro bactericidal activity of the antiprotozoal drug miltefosine against Streptococcus pneumoniae and other pathogenic streptococci” (2007).
≈ marks a conversion by molar mass, not a printed value. Each block holds one compound with its values, some of them ahead of it. Calls of active or inactive are those of the source. The calls are words filed in the database; no cut-off is given here.

Columns and labels:
[1] = tested on: Streptococcus pneumoniae; assay: Antimicrobial activity against Streptococcus pneumoniae spain 23F-1; type: functional
[2] = tested on: Streptococcus sp.; assay: Antimicrobial activity against Streptococcus sp.11923/96; type: functional
[3] = tested on: Streptococcus sp.; assay: Antimicrobial activity against Streptococcus sp. 782/96; type: functional
[4] = tested on: Streptococcus agalactiae; assay: Antimicrobial activity against Streptococcus agalactiae CECT 183; type: functional
[5] = tested on: Streptococcus pyogenes; assay: Antimicrobial activity against Streptococcus pyogens CECT 985
[6] = tested on: Streptococcus pseudopneumoniae; assay: Bactericidal effect on Streptococcus pseudopneumoniae at 10 uM; type: functional
[7] = tested on: Streptococcus pneumoniae; assay: Lytic effect on Streptococcus pneumoniae M32 in presence of 10 ug/ml LytA amidase; type: functional, organism-based
[8] = tested on: Streptococcus pneumoniae; assay: Induction of autolysin LytA Streptococcus pneumoniae M32 assessed as log reduction in bacterial count at 25 uM after 3 hrs; type: functional
[9] = tested on: Streptococcus sp.; assay: Bactericidal effect on Streptococcus sp. 782/96 at 10 uM; type: functional, organism-based
[10] = tested on: Streptococcus oralis; assay: Antimicrobial activity against Streptococcus oralis NCTC 11427
[11] = tested on: Streptococcus pneumoniae; assay: Antimicrobial activity against Streptococcus pneumoniae 8249; type: functional
[12] = tested on: Streptococcus mitis; assay: Antimicrobial activity against Streptococcus mitis NCTC 12161; type: functional
[13] = tested on: Streptococcus pneumoniae; assay: Antimicrobial activity against Streptococcus pneumoniae R6; type: functional
[14] = tested on: Streptococcus pneumoniae; assay: Antimicrobial activity against Streptococcus pneumoniae M32; type: functional
[15] = tested on: Enterococcus faecalis; assay: Antimicrobial activity against Enterococcus faecalis; type: functional
[16] = tested on: Streptococcus sp.; assay: Bactericidal effect on Streptococcus sp.11923/96 at 10 uM; type: functional, organism-based
[17] = tested on: Streptococcus mutans; assay: Antimicrobial activity against Streptococcus mutans CECT 479; type: functional
[18] = tested on: Streptococcus pneumoniae; assay: Induction of autolysin LytA in Streptococcus pneumoniae M32 assessed as log reduction in bacterial count at 25 uM after 15 mins; type: functional
[19] = tested on: Streptococcus pneumoniae; assay: Antimicrobial activity against Streptococcus pneumoniae ATCC 6303; type: functional

MIC [1]: > 8 µg/mL
SMILES: O=C(N[C@H](CO)[C@H](O)c1ccc([N+](=O)[O-])cc1)C(Cl)Cl [CHLORAMPHENICOL]

MIC [2]: 4 µg/mL (≈ 5.45 µM)
MIC [3]: > 128 µg/mL
SMILES: CC[C@H]1OC(=O)[C@H](C)[C@@H](O[C@H]2C[C@@](C)(OC)[C@@H](O)[C@H](C)O2)[C@H](C)[C@@H](O[C@@H]2O[C@H](C)C[C@H](N(C)C)[C@H]2O)[C@](C)(O)C[C@@H](C)C(=O)[C@H](C)[C@@H](O)[C@]1(C)O [ERYTHROMYCIN]

SMILES: CCCCCCCCCCCCCCCCOP(=O)([O-])OCC[N+](C)(C)C [MILTEFOSINE]
MIC [4]: 20 µM (≈ 8.15 µg/mL)
MIC [5]: 10 µM (≈ 4.08 µg/mL)
Activity [6]: Active
Activity [7]: Active
Activity [8]: 4
Activity [9]: Active
MIC [10]: 10 µM (≈ 4.08 µg/mL)
MIC [11]: 6.25 µM (≈ 2.55 µg/mL)
MIC [12]: 10 µM (≈ 4.08 µg/mL)
MIC [1]: 6.25 µM
MIC [13]: 5 µM (≈ 2.04 µg/mL)
MIC [14]: 5 µM (≈ 2.04 µg/mL)
MIC [15]: 20 µM (≈ 8.15 µg/mL)
Activity [16]: Active
MIC [17]: 20 µM (≈ 8.15 µg/mL)
Activity [18]: 2
MIC [19]: 6.25 µM (≈ 2.55 µg/mL)

SMILES: CN(C)[C@@H]1C(O)=C(C(N)=O)C(=O)[C@@]2(O)C(O)=C3C(=O)c4c(O)cccc4[C@@](C)(O)[C@H]3C[C@@H]12 [TETRACYCLINE]
MIC [2]: 0.5 µg/mL (≈ 1.13 µM)
MIC [3]: 128 µg/mL (≈ 288 µM)
MIC [1]: 8 µg/mL
